System: moderate to severe post-operative dental pain
Experiment: PK/PD dental pain study, pain relief scores and pain intensity differences over 12 hours
Assay type: in vivo, human
Settings: for pain relief during the first four hours: compared with the other treatments
Experimental: A double-blind, randomized, parallel, placebo-controlled, single center, PK/PD dental pain study was conducted over a 12 hour observation period to evaluate the pharmacokinetic, pharmacodynamic, efficacy and safety profiles of certain ibuprofen dosing regimens. Specifically, a single dose of 600 mg ibuprofen extended release caplets was compared with equivalent total doses of ibuprofen immediate release 200 mg caplets administered in three different dosing regimens as well as placebo in the treatment of moderate to severe post-operative dental pain.
The ibuprofen was administered as ibuprofen extended release 600 mg caplets or one or more ibuprofen immediate release 200 mg caplets.
The patients evaluated in this study consisted of male or non-pregnant and non-lactating female out-patient volunteers, 16 years of age or older, complaining of moderate to severe pain following the surgical extraction of three or four third molars with at least one partial or complete bony impacted third mandibular molar. The term impacted included: partial bony impaction, bony impaction, or complicated bony impaction. A total of 210 patients were entered into the study. 208 patients were eligible for the efficacy analyses.
All patients who met the entrance criteria were enrolled in one of two study sub-groups. One sub-group of patients had both pharmacokinetic and pharmacodynamic evaluation (PK group). The other sub-group of patients had only the analgesic efficacy evaluations (non-PK group). A separate randomization schedule was used for each of the two sub-groups. Patients from both subgroups were assigned at random to one of the five following treatments:
Patients' assessments of pain intensity and pain relief as well as blood samples for plasma ibuprofen analysis were obtained at the study site at hours 0, 0.25, 0.5, 1, 1.5, 2, 2.5, 3, 4, 4.5, 5, 6, 7, 8, 8.5, 9, 10, 11 and 12. A stopwatch technique was used to measure the onset of meaningful pain relief.

Structure (SMILES): CC(C)Cc1ccc(C(C)C(=O)O)cc1 (centres unmarked) [ibuprofen, 2-(4-isobutylphenyl)-propionic acid]
- pain relief during the first four hours (400/200/0 regimen: immediate release 400 mg at 0 hour, 200 mg at 4 hours): superior pain relief over the other treatments
- pain relief over the entire 12 hour study period (400/200/0 regimen: immediate release 400 mg at 0 hour, 200 mg at 4 hours, patients after third molar extraction): excellent pain relief
- pain relief scores during the 4 to 12 hour interval (400/200/0 regimen, no further ibuprofen after the first four hours): highest pain relief scores
- pain intensity differences (PID) over the 12 hour study period (400/200/0 regimen, particularly after the four hour mark): best PID
- pain relief during the first four hours (600/0/0 immediate release regimen: 600 mg single dose at 0 hour): superior pain relief over the other treatments
